Target: T1, LmoNrdR (Listeria monocytogenes, UniProt Q8Y6W9)
T1 construct: gene nrdR; full-length, C-terminal His6 tag kept (pET30a(+), NdeI/XhoI), E. coli BL21(DE3); 19 kDa with tag
T1 sequence (Q8Y6W9 1-154): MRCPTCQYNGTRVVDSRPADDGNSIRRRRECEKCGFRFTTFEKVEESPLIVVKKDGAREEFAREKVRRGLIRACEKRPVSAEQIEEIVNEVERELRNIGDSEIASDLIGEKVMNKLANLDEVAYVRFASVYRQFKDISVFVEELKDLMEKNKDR
Assay: size exclusion chromatography, oligomer shift; MST of DNA binding
Conditions: 25 mM Bis-Tris propane pH 6.5, 5 mM MgCl2, 100 mM KCl, 4 C; ADP alone

With `Nc1ncnc2c1ncn2[C@@H]1O[C@H](COP(=O)(O)OP(=O)(O)O)[C@@H](O)[C@H]1O` [ADP] the “size exclusion chromatography, oligomer shift; MST of DNA binding” value was “LmoNrdR also eluted as a tetramer in the presence of only ADP”.

Source: PMC12051234, “NrdR in Streptococcus and Listeria spp.: DNA Helix Phase Dependence of the Bacterial Ribonucleotide Reductase Repressor” (Molecular Microbiology, 2025)
